The values that follow are results of earlier work, collected in US20230233494A1, “BIOAVAILABLE SUGAR-BASED DICLOFENAC FORMULATIONS” (APR Applied Pharma Research SA, priority 2020, published 2023).

Structures can show the parent of a compound that is named as a salt.

The conditions of this data set: at acidic pH.

With `O=C(O)Cc1ccccc1Nc1c(Cl)cccc1Cl` [diclofenac potassium, [2-(2,6-dichlorophenyl)amino]benzeneacetate, potassium salt], the Solubility entry was “sparingly soluble”.
